In patent US9359399B2, “Synthetic peptide amides” (Cara Therapeutics, Inc., priority 2006, dated 2016):

Columns and labels:
[1] = biological target: mouse kappa opioid receptor (mKOR) (Mus musculus (Mouse), UniProt P33534); assay: cell-based; settings: read-out: mKOR Efficacy(%)
CYP1A = assay: Cytochrome P450 CYP1A inhibition in human liver microsomes (ethoxyresorufin); type: in vitro ADME; settings: percent remaining CYP activity, 10 uM test compound, 15 minutes
Procedure: Inhibition of cytochrome P450 oxidase isozymes CYP1A, CYP2C9, CYP2C19, CYP2D6 and CYP3A4 by synthetic peptide amide compounds of the invention was determined according to the following methods performed by Cerep (Seattle, Wash.):
In the cytochrome P450 CYP1A assay, human liver microsomes (0.2 mg/ml protein) were incubated for 15 minutes at 37° C. with 10 uM test compound, 1 uM ethoxyresorufin, 1.3 mM NADP, 3.3 mM glucose-6-phosphate and 0.4 U/ml glucose-6-phosphate dehydrogenase. In the absence of test compound, the ethoxyresorufin added as substrate is oxidized to resorufin, and in the presence of an inhibitor of the CYP isozyme, the amount of resorufin produced is reduced. Furafylline was used as a reference inhibitor.
In each assay, the percent inhibition of the cytochrome P450 CYP P450 isozyme was determined as one hundred times the ratio of (1—the amount of product in the sample in the presence of the test compound) divided by the amount of product in the sample containing untreated isozyme.

[2] = Pharmacokinetics in ICR mice after subcutaneous injection; settings: mouse, in vivo, sc, 1 mg/kg, time for plasma concentration to fall by 50% after maximum
Procedure: A single bolus of the synthetic peptide amide compound was administered by subcutaneous injection to ICR mice (n=6, males, body wt 23-37 g, Charles River, Wilmington, Mass.) and plasma samples taken at 5, 10, 15, 20, 30 60, 90, 120, and 180 minutes post-injection.
Quantitation was performed against a calibration curve of the analyte in blank Cynomolgus monkey plasma using the same internal standard. Data analysis and the extraction of pharmacokinetic parameters were performed with the program PK Solutions 2.0 (Summit Research Services, Ashland, Ohio, USA).

[3] = Pharmacokinetics in cynomolgus monkeys after intravenous bolus; settings: cynomolgus monkey, in vivo
CYP3A4 = CYP3A4 (Homo sapiens (Human), UniProt P08684); assay: Cytochrome P450 CYP3A4 inhibition in human liver microsomes (midazolam); settings: percent remaining CYP activity, 10 uM test compound, 20 minutes
CYP2C9 = CYP2C9 (Homo sapiens (Human), UniProt P11712); assay: Cytochrome P450 CYP2C9 inhibition in human liver microsomes (tolbutamide); settings: percent remaining CYP activity, 10 uM test compound, 15 minutes
CYP2C19 = CYP2C19 (Homo sapiens (Human), UniProt P33261); assay: Cytochrome P450 CYP2C19 inhibition in human liver microsomes (omeprazole); settings: percent remaining CYP activity, 10 uM test compound, 15 minutes
CYP2D6 = CYP2D6 (Homo sapiens (Human), UniProt P10635); assay: Cytochrome P450 CYP2D6 inhibition in human liver microsomes (dextromethorphan); settings: percent remaining CYP activity, 10 uM test compound, 15 minutes
[4] = Membrane permeability assay, Caco-2 TC7 monolayers, apical-to-basolateral (Cerep); settings: human
[5] = system: acetic acid-induced writhing in mice; assay: Acetic acid-induced writhing assay in mice; type: in vivo, ICR mice; settings: ICR mice, administered subcutaneously
Procedure: 12: 525-562; Ramabadran and Bansinath (1986) Pharm. Res. 3: 263-270]. Intraperitoneal administration of dilute acetic acid solution causes a writhing behavior in mice. A writhe is defined as a contraction of the abdominal muscles accompanied by an extension of the forelimbs and elongation of the body. The number of writhes observed in the presence and absence of test compounds is counted to determine the analgesic activity of the compounds.
Each day a writhing assay was performed, a vehicle control group of mice (n=6-8) that were treated identically to the test group (except that test compound was omitted from the injection dose) was always included and the average total number of writhes in this group used as the absolute reference point defining 0% decrease in pain perception for all other mice receiving a test compound on that day. Specifically, the total number of writhes of each mouse receiving the test compound was converted to % decrease in pain perception according to the following equation:
[formula] Where Wv is the mean number of writhes in vehicle-treated group and Wc is the number of writhes in compound-treated mouse.
Male ICR mice, 23-37 grams in weight, were weighed and placed in individual observation chambers (usually a 4000 ml glass beaker) with a fine layer of SANI-CHIPS rodent bedding at the bottom. […] After administration of the compound or vehicle control, mice were returned to their individual observation chambers awaiting the intraperitoneal administration of acetic acid solution. […] and acetic acid injection, a dose corresponding to 10 ml/kg of a 0.6% (v/v) acetic acid solution was then injected into the right lower quadrant of the abdomen. Immediately after the injection, the mouse was returned to its observation chamber and the recording of the number of writhes begun immediately. The number of writhes was counted over a 15-min period starting from the time of acetic acid injection, the data being collected over three separate 5 minute time periods (0-5 min, 5-10 min, and 10-15 min).
The data were reported as ED50, and Hill coefficient. […] The Hill coefficient is expressed as the arithmetic mean±sem calculated from the values obtained from the animals.
For dose-response analysis, raw data were converted to % maximum possible effect (% MPE) using the formula: % MPE=((test score−vehicle-treated score)/(0−vehicle-treated score))*100. Raw data were analyzed using a one-way ANOVA followed by Dunnett's post-tests. […] Compounds were administered by the intravenous route.

[6] = Inhibition of locomotion in mice (locomotion reduction assay, sedation); design: species or system ICR mice; settings: mouse, in vivo, sc, administered subcutaneously, sedative effect
Procedure: To determine the potential sedative effect of test compounds, the extent of locomotion reduction after the administration of the test compound or vehicle control can be determined and compared with a specialized apparatus designed for this purpose (Opto-Varimex Activity Meter). At the start of each experiment, each mouse was weighed and examined to determine good health. […] The subcutaneous injection was performed in the back of the neck of the mouse, pinched in a “tent” to allow proper access for the syringe needle. After injection, each animal was placed individually in Plexiglas boxes (43 cm×43 cm) inside the Opto-Varimex Activity Meter apparatus. Before the animal was placed in the apparatus, a thin layer of SANI-CHIPS rodent bedding was placed on the bottom of the Plexiglas box to provide a comfortable environment. Each Opto-Varimex Activity Meter apparatus was then turned on and data acquisition begun by the ATM3 Auto-Track System. The data were processed and results expressed in the same way as described for the writhing assay data in Example 47.
Inhibition of acetic acid-induced writhing by a compound is an indication of an analgesic effect (also called an antinociceptive effect). Similarly, a reduction in locomotion caused by administration of the compound can be used as a measure of its general sedative effect.

[7] = system: capsaicin-induced ocular pain; assay: Capsaicin-induced ocular pain, palpebral opening in rabbits; type: in vivo, albino New Zealand strain rabbits; settings: Table VII, 10 mg/ml, 10-30 min. post capsaicin, five animals

| Structure (SMILES) | Emax [1] | Percent Activity of CYP1A (CYP1A) | half-life [2] | half-life [3] | Percent Activity of CYP3A4 (CYP3A4) | Percent Activity of CYP2C9 (CYP2C9) | Percent Activity of CYP2C19 (CYP2C19) | Percent Activity of CYP2D6 (CYP2D6) | Papp A→B at 60 min, 10 uM [4] | ED50 in the acetic acid-induced writhing assay [5] | ED50 [6] | Mean palpebral opening (% Control) [7] |
| --- | --- | --- | --- | --- | --- | --- | --- | --- | --- | --- | --- | --- |
| CNCCCC[C@@H](NC(=O)[C@@H](CC(C)C)NC(=O)[C@@H](Cc1ccccc1)NC(=O)[C@H](N)Cc1ccccc1)C(=O)N1CCC(N2CCC[C@H]2C(=O)O)CC1 [Compound (6), D-Phe-D-Phe-D-Leu-(ε-Me)D-Lys-[N-(4-piperidinyl)-L-proline]-OH] | 89% | 89.5% | 22 min | 58.6 min | 93.6% | 92.1% | 97.2% | 93.9% | < 0.02 ×10⁻⁶ cm/s |  |  |  |
| CNCCCC[C@@H](NC(=O)[C@@H](CC(C)C)NC(=O)[C@@H](Cc1ccccc1)NC(=O)[C@H](N)Cc1ccccc1)C(=O)N1CCC(N)(C(=O)O)CC1 [Compound (3), D-Phe-D-Phe-D-Leu-(ε-Me)D-Lys-[ω(4-aminopiperidine-4-carboxylic acid)]-OH] |  | 93.1% |  |  | 94.3% | 97.4% | 103.2% | 99.5% | < 0.02 ×10⁻⁶ cm/s | 0.052 mg/kg | 2.69 mg/kg | 76.0 % Control |
